From publication PMC8161026, “Synthesis and Anticancer Activity Evaluation of 5-[2-Chloro-3-(4-nitrophenyl)-2-propenylidene]-4-thiazolidinones” (Molecules, 2021)

Experiments:
[1] = system: MOLT-4; test: cells; settings: Homo sapiens, MOLT-4, 48 h
[2] = system: SK-MEL-2; settings: SK-MEL-2 (Melanoma), 48 h, SRB
[3] = system: EKVX; settings: EKVX (Non-Small Cell Lung Cancer), 48 h, SRB
[4] = system: K-562
[5] = system: SR; test: cells; settings: Homo sapiens, 48 h
[6] = system: RPMI-8226
[7] = system: EKVX; test: cells; settings: Homo sapiens, 48 h
[8] = system: IGROV1; test: NCI DTP 60 cell line screen, SRB
[9] = system: Colon Cancer subpanel; test: cells
Protocol: (§1) At the first stage of biological activity study, the antitumor activity screening of the selected compounds 2b, 2c, 2f, 2h, and 2j was performed according to the NCI DTP (USA) standard protocol at the concentrations ranging from 10^−4 to 10^−8 M toward 60 tumor cell lines. The percentage of growth was evaluated spectrophotometrically versus controls not treated with test agents after 48 h exposure and using SRB protein assay to estimate cell viability or growth. Dose–response parameters were calculated for each cell line: GI50—molar concentration of the compound that inhibits 50% net cell growth; TGI—molar concentration of the compound leading to the total inhibition; and LC50—molar concentration of the compound leading to 50% net cell death. Furthermore, mean graph midpoints (MG_MID) were calculated for each of the parameters, giving an average activity parameter over all cell lines for the tested compound. For the MG_MID calculation, insensitive cell lines were included with the highest concentration tested.
(§2) The selectivity index (SI) obtained by dividing the full panel MG-MID (mM) of the tested compound by their individual subpanel MG-MID (mM) was considered as a measure of selectivity of anticancer activity (Table 3).
(§3) Primary anticancer assay was performed on a panel of approximately sixty human tumor cell lines derived from nine neoplastic diseases, in accordance with the protocol of the Drug Evaluation Branch, National Cancer Institute, Bethesda. Tested compounds were added to the culture at a single concentration (10^−5 M) and the cultures were incubated for 48 h. End point determinations were made with a protein binding dye, sulforhodamine B (SRB). […] The percentage growth was evaluated spectrophotometrically versus controls not treated with test agents.
(§4) Dose–response parameters (GI50, TGI, LC50) were calculated for each compound. […] The drug concentration resulting in total growth inhibition (TGI) was calculated from Ti = Tz. The LC50 (concentration of drug resulting in a 50% reduction in the measured protein at the end of the drug treatment as compared to that at the beginning) indicating a net loss of cells following treatment was calculated from [(Ti − Tz)/Tz] × 100 = −50 (2). Values were calculated for each of these parameters if the level of activity was reached; however, if the effect was not reached or was excessive, the value for that parameter was expressed as more or less than the maximum or minimum concentration tested.

[10] = system: Leukemia subpanel; test: cells
Protocol: as §1, §2, §3, §4

[11] = system: Breast Cancer subpanel; test: cells
Protocol: as §1, §2, §3, §4

[12] = system: Prostate Cancer subpanel; test: cells
Protocol: as §1, §2, §3, §4

[13] = system: Ovarian Cancer subpanel; test: cells
Protocol: as §1, §2, §3, §4

[14] = system: Renal Cancer subpanel; test: cells
Protocol: as §1, §2, §3, §4

[15] = system: Melanoma subpanel; test: cells
Protocol: as §1, §2, §3, §4

[16] = system: Non-Small Cell Lung Cancer subpanel; test: cells
Protocol: as §1, §2, §3, §4

[17] = system: CNS Cancer subpanel; test: cells
Protocol: as §1, §2, §3, §4

[18] = system: OVCAR-8; test: NCI DTP 60 cell line screen, SRB
[19] = system: PC-3; test: cells; settings: Homo sapiens, PC-3, 48 h
[20] = system: K-562; test: cells; settings: Homo sapiens, K562, 48 h
[21] = system: NCI-H226; test: NCI DTP 60 cell line screen, SRB
[22] = Homo sapiens, read-out: MG_MID, GI50
[23] = Homo sapiens, read-out: MG_MID, LC50
[24] = full panel MG_MID / Colon Cancer subpanel MG_MID
[25] = full panel MG_MID / Leukemia subpanel MG_MID
[26] = full panel MG_MID / Breast Cancer subpanel MG_MID
[27] = full panel MG_MID / Prostate Cancer subpanel MG_MID
[28] = full panel MG_MID / Ovarian Cancer subpanel MG_MID
[29] = full panel MG_MID / Renal Cancer subpanel MG_MID
[30] = full panel MG_MID / Melanoma subpanel MG_MID
[31] = full panel MG_MID / Non-Small Cell Lung Cancer subpanel MG_MID
[32] = full panel MG_MID / CNS Cancer subpanel MG_MID

O=C(O)C(Cc1ccccc1)N1C(=O)/C(=C/C(Cl)=C/c2ccc([N+](=O)[O-])cc2)SC1=S (stereo not shown) [Compound 2j, 2-{5-[(Z,2Z)-2-Chloro-3-(4-nitrophenyl)-2-propenylidene]-4-oxo-2-thioxothiazolidin-3-yl}-3-phenylpropanoic acid]
GI50 [1]: 3.14 µM | CC50 ([1]; read-out: LC50): > 100 µM | TGI [2]: 4.50 µM | TGI [3]: 7.29 µM | TI (Therapeutic Index) ([4]; GI50 (normal blood lymphocyte)/GI50 (K-562)): 16.27 | TGI ([4]; K-562 (Leukemia), 48 h, SRB): > 100 µM | GI50 [5]: 2.45 µM | CC50 ([5]; read-out: LC50): > 100 µM | TI (Therapeutic Index) ([6]; GI50 (normal blood lymphocyte)/GI50 (RPMI-8226)): 15.21 | TGI ([6]; RPMI-8226 (Leukemia), 48 h, SRB): > 100 µM | GI50 [7]: 2.59 µM | CC50 ([7]; read-out: LC50): > 100 µM | GI50 ([8]; Homo sapiens, IGROV-1, 48 h): 2.99 µM | CC50 ([8]; Homo sapiens, IGROV-1, 48 h, read-out: LC50): > 100 µM | TGI ([8]; IGROV1 (Ovarian Cancer), 48 h, SRB): > 100 µM | MG_MID, TGI ([9]; Colon Cancer panel mean): 18.7 µM | GI50 [9, 22]: 2.19 µM | CC50 [9, 23]: 67.4 µM | SI (selectivity index), GI50 [9, 24]: 1.87 | SI (selectivity index), LC50 [9, 24]: 1.10 | SI (selectivity index), TGI [9, 24]: 2.17 | TI (Therapeutic Index) ([10]; GI50 (normal blood lymphocyte)/GI50 (Leukemia Panel)): 16.60 | GI50 [10, 22]: 2.95 µM | CC50 [10, 23]: > 100 µM | MG_MID, TGI ([10]; Leukemia panel mean): >100 µM | SI (selectivity index), GI50 [10, 25]: 1.39 | SI (selectivity index), LC50 [10, 25]: <0.74 | SI (selectivity index), TGI [10, 25]: <0.41 | MG_MID, TGI ([11]; Breast Cancer panel mean): 37.0 µM | GI50 [11, 22]: 24.6 µM | CC50 [11, 23]: 84.6 µM | SI (selectivity index), GI50 [11, 26]: 0.17 | SI (selectivity index), LC50 [11, 26]: 0.87 | SI (selectivity index), TGI [11, 26]: 1.10 | GI50 [12, 22]: 2.3 µM | CC50 [12, 23]: 55.9 µM | MG_MID, TGI ([12]; Prostate Cancer panel mean): 6.27 µM | SI (selectivity index), GI50 [12, 27]: 1.78 | SI (selectivity index), LC50 [12, 27]: 1.32 | SI (selectivity index), TGI [12, 27]: 6.48 | GI50 [13, 22]: 3 µM | CC50 [13, 23]: 84.5 µM | MG_MID, TGI ([13]; Ovarian Cancer panel mean): 68.6 µM | SI (selectivity index), GI50 [13, 28]: 1.36 | SI (selectivity index), LC50 [13, 28]: 0.87 | SI (selectivity index), TGI [13, 28]: 0.59 | GI50 [14, 22]: 2.03 µM | CC50 [14, 23]: 42.6 µM | MG_MID, TGI ([14]; Renal Cancer panel mean): 27.8 µM | SI (selectivity index), GI50 [14, 29]: 2.01 | SI (selectivity index), LC50 [14, 29]: 1.73 | SI (selectivity index), TGI [14, 29]: 1.46 | GI50 [15, 22]: 2 µM | CC50 [15, 23]: 50.6 µM | MG_MID, TGI ([15]; Melanoma panel mean): 17.9 µM | SI (selectivity index), GI50 [15, 30]: 2.05 | SI (selectivity index), LC50 [15, 30]: 1.46 | SI (selectivity index), TGI [15, 30]: 2.27 | GI50 [16, 22]: 13.1 µM | CC50 [16, 23]: 92.9 µM | MG_MID, TGI ([16]; Non-Small Cell Lung Cancer panel mean): 36.9 µM | SI (selectivity index), GI50 [16, 31]: 0.31 | SI (selectivity index), LC50 [16, 31]: 0.80 | SI (selectivity index), TGI [16, 31]: 1.10 | GI50 [17, 22]: 2.18 µM | CC50 [17, 23]: 7.21 µM | SI (selectivity index), GI50 [17, 32]: 1.88 | SI (selectivity index), LC50 [17, 32]: 10.25 | SI (selectivity index), TGI [17, 32]: 11.53 | GI50 ([18]; Homo sapiens, OVCAR-8, 48 h): 3.13 µM | CC50 ([18]; Homo sapiens, OVCAR-8, 48 h, read-out: LC50): > 100 µM | TGI ([18]; OVCAR-8 (Ovarian Cancer), 48 h, SRB): > 100 µM | GI50 [19]: 2.53 µM | CC50 ([19]; read-out: LC50): > 100 µM | GI50 [20]: 3.01 µM | CC50 ([20]; read-out: LC50): > 100 µM | GI50 ([21]; Homo sapiens, NCI-H226, 48 h): 1.58 µM | CC50 ([21]; Homo sapiens, NCI-H226, 48 h, read-out: LC50): 6.76 µM | TGI ([21]; NCI-H226 (Non-Small Cell Lung Cancer), 48 h, SRB): 3.27 µM
